Results from patent publication US20230219904A1 (SYNGENTA CROP PROTECTION AG, priority 2020, published 2023).

How the values were obtained:
Format in all cases: in vivo
Details in all cases: applied at 125 g/ha, evaluated after 13 days
[1] = test system: Abutilon theophrasti (ABUTH); assay: Pre-emergence herbicidal glasshouse test (Table B1)
In short: (§1)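 Application rate was 500 g/h unless otherwise indicated, as a spray prepared from acetone/water (50:50) containing 0.5% Tween 20. Treatment followed one day (pre-emergence) or 8 days (post-emergence) of glasshouse growth, and percentage plant damage was assessed 13 days later on a 1–5 scale.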

[2] = test system: Amaranthus retoflexus (AMARE); assay: as above
In short: as §1

[3] = test system: Echinochloa crus-galh (ECHCG); assay: as above
In short: as §1

[4] = test system: Ipomoea hederacea (IPOHE); assay: as above
In short: as §1

Setaria faberi (SETFA) [5] = assay: as above
In short: as §1

[6] = test system: Abutilon theophrasti (ABUTH); assay: Post-emergence herbicidal glasshouse test (Table B1)
In short: as §1

[7] = test system: Amaranthus retoflexus (AMARE); assay: as above
In short: as §1

[8] = test system: Echinochloa crus-galh (ECHCG); assay: as above
In short: as §1

[9] = test system: Ipomoea hederacea (IPOHE); assay: as above
In short: as §1

Setaria faberi (SETFA) [10] = assay: as above
In short: as §1

Compound | PRE Application ABUTH, percentage damage on five-point scale [1] | PRE Application AMARE, percentage damage on five-point scale [2] | PRE Application ECHCG, percentage damage on five-point scale [3] | PRE Application IPOHE, percentage damage on five-point scale [4] | PRE Application SETFA, percentage damage on five-point scale (Setaria faberi (SETFA) [5]) | POST Application ABUTH, percentage damage on five-point scale [6] | POST Application AMARE, percentage damage on five-point scale [7] | POST Application ECHCG, percentage damage on five-point scale [8] | POST Application IPOHE, percentage damage on five-point scale [9] | POST Application SETFA, percentage damage on five-point scale (Setaria faberi (SETFA) [10])
Cn1nnnc1NC(=O)c1ccc(OC(F)F)c(NC(=O)CC2CC2)c1Cl [Compound 1.036] | 5 (5=80-100%) | 5 (5=80-100%) | 5 (5=80-100%) | 4 (4=60-79%) | 5 (5=80-100%) | 5 (5=80-100%) | 5 (5=80-100%) | 5 (5=80-100%) | 4 (4=60-79%) | 5 (5=80-100%)
CN(C(=O)CC1CC1)c1c(OC(F)F)ccc(C(=O)Nc2nnnn2C)c1Cl [Compound 1.037] | 5 (5=80-100%) | 5 (5=80-100%) | 5 (5=80-100%) | 4 (4=60-79%) | 4 (4=60-79%) | 5 (5=80-100%) | 5 (5=80-100%) | 5 (5=80-100%) | 4 (4=60-79%) | 5 (5=80-100%)
Cc1cc(C(=O)Nc2c(OC(F)F)ccc(C(=O)Nc3nnnn3C)c2Cl)no1 [Compound 1.044] | 4 (4=60-79%) | 4 (4=60-79%) | 2 (2=20-39%) | 1 (1=0-19%) | 2 (2=20-39%) | 3 (3=40-59%) | 5 (5=80-100%) | 2 (2=20-39%) | 4 (4=60-79%) | 3 (3=40-59%)
COC(C)C(=O)Nc1c(OC(F)(F)F)ccc(C(=O)Nc2nnnn2C)c1Cl (stereo not shown) [Compound 1.063] | 5 (5=80-100%) | 5 (5=80-100%) | 5 (5=80-100%) | 5 (5=80-100%) | 5 (5=80-100%) | 5 (5=80-100%) | 5 (5=80-100%) | 5 (5=80-100%) | 4 (4=60-79%) | 5 (5=80-100%)
CCOC(C)C(=O)Nc1c(OC(F)(F)F)ccc(C(=O)Nc2nnnn2C)c1Cl (stereo not shown) [Compound 1.065] | 5 (5=80-100%) | 5 (5=80-100%) | 5 (5=80-100%) | 5 (5=80-100%) | 5 (5=80-100%) | 5 (5=80-100%) | 5 (5=80-100%) | 5 (5=80-100%) | 5 (5=80-100%) | 5 (5=80-100%)
CCC(=O)Nc1c(OC(F)(F)F)ccc(C(=O)Nc2nnnn2C)c1C(F)(F)F [Compound 1.082] | 5 (5=80-100%) | 5 (5=80-100%) | 5 (5=80-100%) | 3 (3=40-59%) | 4 (4=60-79%) | 4 (4=60-79%) | 4 (4=60-79%) | 3 (3=40-59%) | 4 (4=60-79%) | 4 (4=60-79%)
Cn1nnnc1NC(=O)c1ccc(OC(F)F)c(NC(=O)c2ccc(C(F)(F)F)cn2)c1Cl [Compound 1.084] | 4 (4=60-79%) | 5 (5=80-100%) | 1 (1=0-19%) | 1 (1=0-19%) | 1 (1=0-19%) | 5 (5=80-100%) | 4 (4=60-79%) | 3 (3=40-59%) | 3 (3=40-59%) | 3 (3=40-59%)
